pKd: −log10 of the molar value.
Molecular target: T1, plasma membrane Ca2+-ATPase (PMCA), 90% PMCA4b (Homo sapiens, UniProt P23634)
T1 construct: gene ATP2B4
Assay: fluorescence of ATA bound to purified PMCA and quenching of intrinsic Trp fluorescence; also Ca2+-ATPase inhibition (Ki […])
Assay type: binding

T1 sequence (P23634 1-1205 isoform P23634-6): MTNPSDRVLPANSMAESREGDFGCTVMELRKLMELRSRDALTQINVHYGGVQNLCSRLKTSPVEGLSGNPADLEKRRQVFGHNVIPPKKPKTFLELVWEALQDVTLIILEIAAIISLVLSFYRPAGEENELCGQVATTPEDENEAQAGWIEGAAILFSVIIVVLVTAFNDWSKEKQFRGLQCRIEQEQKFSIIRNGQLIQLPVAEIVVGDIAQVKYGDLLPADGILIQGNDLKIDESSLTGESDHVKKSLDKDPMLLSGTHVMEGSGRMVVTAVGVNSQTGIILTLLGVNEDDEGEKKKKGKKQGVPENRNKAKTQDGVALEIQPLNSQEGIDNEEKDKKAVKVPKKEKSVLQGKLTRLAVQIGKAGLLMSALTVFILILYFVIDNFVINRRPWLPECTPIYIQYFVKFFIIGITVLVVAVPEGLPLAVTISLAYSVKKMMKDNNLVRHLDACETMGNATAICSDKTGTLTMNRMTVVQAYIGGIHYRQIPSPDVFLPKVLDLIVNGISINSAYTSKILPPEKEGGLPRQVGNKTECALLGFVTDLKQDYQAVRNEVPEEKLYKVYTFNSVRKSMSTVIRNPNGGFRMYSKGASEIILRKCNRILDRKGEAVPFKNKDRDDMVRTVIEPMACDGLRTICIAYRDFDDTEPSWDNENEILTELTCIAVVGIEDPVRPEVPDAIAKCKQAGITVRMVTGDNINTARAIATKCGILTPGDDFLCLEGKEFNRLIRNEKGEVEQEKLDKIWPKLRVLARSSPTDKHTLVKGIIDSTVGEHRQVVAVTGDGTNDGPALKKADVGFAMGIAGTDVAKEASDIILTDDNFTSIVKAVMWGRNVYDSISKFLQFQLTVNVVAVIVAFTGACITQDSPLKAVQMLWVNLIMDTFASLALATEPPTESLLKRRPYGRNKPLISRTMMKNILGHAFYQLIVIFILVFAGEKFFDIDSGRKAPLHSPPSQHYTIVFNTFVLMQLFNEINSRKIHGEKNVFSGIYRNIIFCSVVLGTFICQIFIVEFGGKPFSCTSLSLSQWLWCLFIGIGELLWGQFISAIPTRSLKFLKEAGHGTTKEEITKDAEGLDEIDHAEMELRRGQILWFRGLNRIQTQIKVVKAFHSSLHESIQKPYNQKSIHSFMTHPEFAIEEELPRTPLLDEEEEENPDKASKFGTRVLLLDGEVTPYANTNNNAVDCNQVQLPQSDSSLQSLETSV

Compound: O=C(O)C1=CC(=C(c2ccc(O)c(C(=O)O)c2)c2ccc(O)c(C(=O)O)c2)C=CC1=O [ATA, aurintricarboxylic acid]
- pKd: 6.80

From PMC11208427, “Magnesium enhances aurintricarboxylic acid’s inhibitory action on the plasma membrane Ca^2+-ATPase” (Scientific Reports, 2024)
